From ChEMBL document CHEMBL3508140 (2016)

Experiments:
[1] = Plasma clearance of daunorubicin following intravenous daunorubicin at 1.2 mg.Kg-1 dose in dog; format: ADME, organism-based, Canis lupus familiaris; design: dose 1.2 mg.Kg-1, dosed compound id 2.46809e+06, dosed compound name Daunorubicin, route intravenous; conditions: Beagle, read-out: Clp
[2] = Volume of distribution of daunorubicin following intravenous daunorubicin at 1.2 mg.Kg-1 dose in dog; format: ADME, organism-based, Canis lupus familiaris; design: dose 1.2 mg.Kg-1, dosed compound id 2.46809e+06, dosed compound name Daunorubicin, route intravenous; conditions: Beagle, plasma
[3] = Terminal half-life of daunorubicin following intravenous daunorubicin at 1.2 mg.Kg-1 dose in dog; format: ADME, organism-based, Canis lupus familiaris; design: dose 1.2 mg.Kg-1, dosed compound id 2.46809e+06, dosed compound name Daunorubicin, route intravenous; conditions: Beagle, plasma
[4] = AUC values (0-48 h) of doxorubicinol in tumor following single intravenous doxorubicin at 10 mg.Kg-1 dose in female mouse bearing colon tumor; format: ADME, organism-based, BALB/c, Neoplasm; design: time < 48 hr, dose 10 mg.Kg-1, dosed compound id 2.46809e+06, dosed compound name Doxorubicin, gender F, regimen Single, route intravenous, sampling time 48 h; conditions: in vivo
[5] = Terminal half-life of doxorubicinol following intravenous doxorubicinol at 1.27 mg.Kg-1 dose in dog; format: ADME, organism-based, Canis lupus familiaris, Beagle, Plasma; design: dose 1.27 mg.Kg-1, dosed compound id 2.4681e+06, dosed compound name Doxorubicinol, route intravenous; conditions: in vivo
[6] = (§1) Urinary elimination of adriamycinol following intravenous bolus adriamycin at 10 mg.Kg-1 dose in rat; format: ADME, organism-based, SD, Urine; design: dose 10 mg.Kg-1, dosed compound id 2.46809e+06, dosed compound name Doxorubicin, route intravenous, sampling time 0-6 h; conditions: in vivo
[7] = Recovery of doxorubicinol following intravenous epirubicin at 4 mg.Kg-1 dose in rabbit; format: ADME, organism-based, Oryctolagus cuniculus, New Zealand White, Plasma; conditions: in vivo
[8] = Detection of doxorubicinol in tumor following single intravenous doxorubicin at 10 mg.Kg-1 dose in female mouse bearing colon tumor; format: ADME, organism-based, BALB/c, Neoplasm; design: dose 10 mg.Kg-1, dosed compound id 2.46809e+06, dosed compound name Doxorubicin, gender F, regimen Single, route intravenous, sampling time 48 h; conditions: in vivo
[9] = Recovery of doxorubicinol following intraperitoneal epirubicin at 4 mg.Kg-1 dose in hamster; format: ADME, organism-based, Cricetulus griseus, Plasma; conditions: chinese hamster, in vivo, ip
[10] = Recovery of doxorubicinol following intravenous epirubicin at 1.5 mg.Kg-1 dose in man; format: ADME, organism-based, Plasma; conditions: human, in vivo
[11] = AUC values (0-48 h) of doxorubicinol in plasma following single intravenous doxorubicin at 10 mg.Kg-1 dose in female mouse bearing colon tumor; format: ADME, organism-based, BALB/c; design: time < 48 hr, dose 10 mg.Kg-1, dosed compound id 2.46809e+06, dosed compound name Doxorubicin, gender F, regimen Single, route intravenous, sampling time 48 h; conditions: in vivo
[12] = Recovery of doxorubicinol following intravenous epirubicin at 4 mg.Kg-1 dose in rat; format: ADME, organism-based, SD, Plasma; conditions: in vivo
[13] = Detection of doxorubicinol in heart following single intravenous doxorubicin at 10 mg.Kg-1 dose in female mouse bearing colon tumor; format: ADME, organism-based, BALB/c; design: dose 10 mg.Kg-1, dosed compound id 2.46809e+06, dosed compound name Doxorubicin, gender F, regimen Single, route intravenous, sampling time 48 h; conditions: in vivo
[14] = Detection of doxorubicinol in plasma following single intravenous doxorubicin at 10 mg.Kg-1 dose in female mouse bearing colon tumor; format: ADME, organism-based, BALB/c; design: dose 10 mg.Kg-1, dosed compound id 2.46809e+06, dosed compound name Doxorubicin, gender F, regimen Single, route intravenous, sampling time 48 h; conditions: in vivo
[15] = as §1; format: ADME, organism-based, SD, Urine; design: dose 10 mg.Kg-1, dosed compound id 2.46809e+06, dosed compound name Doxorubicin, route intravenous, sampling time 0-24 h; conditions: in vivo
[16] = AUC values (0-48 h) of doxorubicinol in heart following single intravenous doxorubicin at 10 mg.Kg-1 dose in female mouse bearing colon tumor; format: ADME, organism-based, BALB/c; design: time < 48 hr, dose 10 mg.Kg-1, dosed compound id 2.46809e+06, dosed compound name Doxorubicin, gender F, regimen Single, route intravenous, sampling time 48 h; conditions: in vivo
[17] = as §1; format: ADME, organism-based, SD, Urine; design: dose 10 mg.Kg-1, dosed compound id 2.46809e+06, dosed compound name Doxorubicin, route intravenous, sampling time 0-60 h; conditions: in vivo
[18] = Recovery of doxorubicinol following intraperitoneal epirubicin at 4 mg.Kg-1 dose in mouse; format: ADME, organism-based, CD-1, Plasma; conditions: in vivo, ip

clearance [1] [mL/min] | Vd [2] [L/kg] | half-life [3] [min] | AUC [4] [nmol·min/g] | t1/2 [5] | Compound recovery [6] [%] | Compound recovery [7] | Compound recovery [8] | Compound recovery [9] | Compound recovery [10] | AUC [11] [nmol·min/mL] | Compound recovery [12] | Compound recovery [13] | Compound recovery [14] | Compound recovery [15] [%] | AUC [16] [nmol·min/g] | Compound recovery [17] [%] | Compound recovery [18] | Compound
2030 | 51 | 5.3 |  |  |  |  |  |  |  |  |  |  |  |  |  |  |  | COc1cccc2c1C(=O)c1c(O)c3c(c(O)c1C2=O)C[C@@](O)(C(C)=O)C[C@@H]3O[C@H]1C[C@H](N)[C@H](O)[C@H](C)O1 [DAUNORUBICIN]
 |  |  | 0 | VALUE = Shorter than doxorubicin | 0.22 | 0.3 10^-9M | OUTCOME = Not detected/not observed | 0.1 10^-9M | 1 10^-9M | 1.7 | 0.6 10^-9M | OUTCOME = Observed | OUTCOME = Observed | 0.26 | 228 | 0.3 | 0 10^-9M | COc1cccc2c1C(=O)c1c(O)c3c(c(O)c1C2=O)C[C@@](O)(C(O)CO)C[C@@H]3O[C@H]1C[C@H](N)[C@H](O)[C@H](C)O1 (stereo partly drawn)
